In patent US20080207614A1, “QUINAZOLINE DERIVATIVES FOR THE TREATMENT AND PREVENTION OF DIABETES AND OBESITY” (SK CHEMICALS CO., LTD., priority 2004, published 2008):

Test system: C2C12 muscle cells
Assay: Analysis of glucose absorption (2-deoxyglucose) in differentiated C2C12 muscle cells
Type: cell-based
Conditions: test materials 10 μM, times relative to control group
Description: C2C12 muscle cells were cultured in DMEM (Dulbecco's modified Eagle's medium) containing 10% bovine calf serum. When the cell density increased to about 85 to 90%, the culture medium was replaced with 1% bovine calf serum and cell differentiation was induced for 6 days. Completely differentiated cells were cultured for 3 hours with Krebs-Ringer buffer (KRB) containing 5 mM glucose. The test materials were added at a concentration of 10 μM. 30 minutes later, 0.2 μCi 2-deoxyglucose was added. KRB was removed 20 minutes later and the cells were washed for 3 times with cold PBS. The cells were lysed with 0.5N NaOH and counted using a radioactive counter.

Point of comparison: `c1ccc(-c2nc(NCCCN3CCOCC3)c3ccccc3n2)cc1` [Compound 156, (3-Morpholino-4-ylpropyl)-(2-phenylquinazolino-4-yl)-amine], Glucose absorption 1.1. Against it:
- OCCNc1nc(-c2cccnc2)nc2ccccc12 [Compound 246, 2-(2-Pyridino-3-ylquinazolino-4-ylamino)-ethanol] — higher, 1.2
- c1ccc(-c2nc(NCc3cccc4ccccc34)c3ccccc3n2)cc1 [Compound 57, Naphthaleno-1-ylmethyl-(2-phenylquinazolino-4-yl)-amine] — lower, 1.0
- Cc1nc(NCCOCCO)c2ccccc2n1 [Compound 173, 2-[2-(2-Methylquinazolino-4-ylamino)-ethoxy]-ethanol] — higher, 1.3
- CCSc1nc(NCCOCCO)c2ccccc2n1 [Compound 50, 2-[2-(2-Ethylsulfanylquinazolino-4-ylamino)-ethoxy]-ethanol] — higher, 1.2
- Fc1cccc(CNc2nc(-c3ccccc3)nc3ccccc23)c1 [Compound 63, (3-Fluorobenzyl)-(2-phenylquinazolino-4-yl)-amine] — the same, 1.1
- OCCNc1nc(-c2ccc(Cl)cc2)nc2ccccc12 [Compound 270, 2-[2-(4-Chlorophenyl)-quinazolino-4-ylamino]-ethanol] — the same, 1.1
- c1ccc(CNc2nc(-c3ccncc3)nc3ccccc23)cc1 [Compound 247, Benzyl-(2-pyridino-4-ylquinazolino-4-yl)-amine] — higher, 1.3
- Brc1cccc(Nc2nc(-c3ccccc3)nc3ccccc23)c1 [Compound 83, (3-Bromophenyl)-(2-phenylquinazolino-4-yl)-amine] — lower, 0.7
- Clc1ccc(Nc2nc(-c3ccccc3)nc3ccccc23)cc1 [Compound 162, (4-Chlorophenyl)-(2-phenylquinazolino-4-yl)-amine] — higher, 1.3
- c1ccc(Oc2ccc(Nc3nc(-c4ccccc4)nc4ccccc34)cc2)cc1 [Compound 82, (4-Phenoxy-phenyl)-(2-phenylquinazolino-4-yl)-amine] — higher, 1.2
- OCCOCCNc1nc(-c2ccncc2)nc2ccccc12 [Compound 257, 2-[2-(2-Pyridino-4-ylquinazolino-4-ylamino)-ethoxy]-ethanol] — higher, 1.4
- CCSc1nc(NC2CCCCC2)c2ccccc2n1 [Compound 27, Cyclohexyl-(2-ethylsulfanylquinazolino-4-yl)-amine] — lower, 1.0
- O=C1CCCN1CCCNc1nc(-c2ccccc2)nc2ccccc12 [Compound 150, 1-[3-(2-Phenylquinazolino-4-ylamino)-propyl]-pyrrolidino-2-one] — higher, 2.6
- c1ccc(CCCCNc2nc(C3CCCCC3)nc3ccccc23)cc1 [Compound 204, (2-Cyclohexylquinazolino-4-yl)-(4-phenylbutyl)-amine] — higher, 1.2
- Fc1cccc(CNc2nc(-c3ccncc3)nc3ccccc23)c1 [Compound 255, (3-Fluorobenzyl)-(2-pyridino-4-ylquinazolino-4-yl)-amine] — higher, 1.3
- COc1cc(OC)c(CNc2nc(Cc3ccccc3)nc3ccccc23)c(OC)c1 [Compound 335, (2-Benzylquinazolino-4-yl)-(2,4,6-trimethoxybenzyl)-amine] — the same, 1.1
- COc1ccccc1CNc1nc(-c2ccccc2)nc2ccccc12 [Compound 91, (2-Methoxybenzyl)-(2-phenylquinazolino-4-yl)-amine] — higher, 1.2
- CCC(COC)Nc1nc(-c2ccccc2)nc2ccccc12 (centres unmarked) [Compound 104, (1-Methoxymethylpropyl)-(2-phenylquinazolino-4-yl)-amine] — lower, 1.0
- CC(C)(C)c1nc(NCc2cccc3ccccc23)c2ccccc2n1 [Compound 193, (2-tert-Butylquinazolino-4-yl)-naphthaleno-1-ylmethylamine] — higher, 1.3
- COc1cccc(CNc2nc(-c3ccccc3)nc3ccccc23)c1 [Compound 90, (3-Methoxybenzyl)-(2-phenylquinazolino-4-yl)-amine] — higher, 1.4
- CCCCN(CCO)c1nc(-c2ccccc2)nc2ccccc12 [Compound 157, 2-[Butyl-(2-phenylquinazolino-4-yl)-amino]-ethanol] — higher, 2.0
- c1ccc(CCCCCNc2nc(-c3ccccc3)nc3ccccc23)cc1 [Compound 53, (5-Phenyl-pentyl)-(2-phenylquinazolino-4-yl)-amine] — higher, 1.2
- c1ccc(CCCCNc2nc(-c3ccncc3)nc3ccccc23)cc1 [Compound 252, (4-Phenylbutyl)-(2-pyridino-4-ylquinazolino-4-yl)-amine] — lower, 0.9
- FC(F)(F)c1cccc(CNc2nc(-c3ccccc3)nc3ccccc23)c1 [Compound 66, (2-Phenylquinazolino-4-yl)-(3-trifluoromethylbenzyl)-amine] — higher, 1.3
- CCCCNc1nc(SCC)nc2ccccc12 [Compound 19, Butyl-(2-ethylsulfanylquinazolino-4-yl)-amine] — higher, 1.4
- CCSc1nc(NC(C)c2ccccc2)c2ccccc2n1 (centres unmarked) [Compound 23, (2-Ethylsulfanylquinazolino-4-yl)-(1-phenylethyl)-amine] — lower, 0.8
- COc1cccc(CNc2nc(-c3ccccn3)nc3ccccc23)c1 [Compound 224, (3-Methoxybenzyl)-(2-pyridino-2-ylquinazolino-4-yl)-amine] — the same, 1.1
- Fc1cccc(CCNc2nc(Cc3ccccc3)nc3ccccc23)c1 [Compound 220, (2-Benzylquinazolino-4-yl)-[2-(3-fluorophenyl)-ethyl]-amine] — higher, 2.5
- Clc1ccc(CNc2nc(-c3ccccc3)nc3ccccc23)cc1 [Compound 88, (4-Chlorobenzyl)-(2-phenylquinazolino-4-yl)-amine] — the same, 1.1
- CCSc1nc(NCCc2ccccn2)c2ccccc2n1 [Compound 46, (2-Ethylsulfanylquinazolino-4-yl)-(2-pyridino-2-ylethyl)-amine] — the same, 1.1
- c1ccc(-c2nc(NCCN3CCCC3)c3ccccc3n2)cc1 [Compound 100, (2-Phenylquinazolino-4-yl)-(2-pyrrolidino-1-ylethyl)-amine] — higher, 1.4
- c1ccc(-c2nc(NCCN3CCNCC3)c3ccccc3n2)cc1 [Compound 160, (2-Phenylquinazolino-4-yl)-(2-piperazino-1-ylethyl)-amine] — higher, 2.5
- OCCNc1nc(C2CCCCC2)nc2ccccc12 [Compound 210, 2-(2-Cyclohexylquinazolino-4-ylamino)-ethanol] — lower, 0.9
- FC(F)(F)c1ccccc1CNc1nc(-c2ccccc2)nc2ccccc12 [Compound 98, (2-Phenylquinazolino-4-yl)-(2-trifluoromethylbenzyl)-amine] — higher, 1.2
- c1ccc(-c2nc(NCc3cccs3)c3ccccc3n2)cc1 [Compound 59] — higher, 1.2
- Fc1cccc(CNc2nc(-c3ccc(Cl)cc3)nc3ccccc23)c1 [Compound 267, [2-(4-Chlorophenyl)-quinazolino-4-yl]-(3-fluorobenzyl)-amine] — lower, 1.0
- c1ccc(CN2CCC(Nc3nc(-c4ccccc4)nc4ccccc34)CC2)cc1 [Compound 105, (1-Benzyl-piperidino-4-yl)-(2-phenylquinazolino-4-yl)-amine] — higher, 1.2
